According to patent US12180388B2, “Method of treatment of a surface” (Conopco, Inc., priority 2018, dated 2024):

Experiments:
Aspergillus brasiliensis = assay: Single-species biofilm (microfouling) growth inhibition, crystal violet biomass; type: cell-based; conditions: 24 hours, untreated control 1.1
Method: (§1) Fresh stock solution of lactam was prepared at 20 mM in DMSO. Lactam stock was then serially diluted in tissue culture plates in 100% ethanol first ten-fold and subsequently to the desired concentrations. Plates were then left to dry overnight in a fume hood.
(§2) Single species plates were inoculated with each 1×10^6 bacteria/Aspergillus in marine broth and left for 24 hours. Multispecies plates were inoculated with 1×10^5 S. algae, V. anguillarium V. alginolyticus and 1×10^6 C. marina, A. brasiliensis, P. atlantica, C. lytica in marine broth and left for 24 hours, 48 and 72 hours. Plates were washed twice and left overnight to dry. Crystal violet (0.05% w/v) was added for 20 minutes and destained using 100% ethanol. Biomass was measured by optical density (OD) at 570 nm.
(§3) In this experiment, the plates were treated with lactam at levels of 0.0312 mM to 2 mM as well as an untreated control. The specific levels of lactam measured were of 0.0312 mM, of 0.0625 mM, of 0.125 mM, of 0.25 mM, of 0.5 mM, 1 mM, and 2 mM. This would equate to levels of from ˜6 ppm ([…]) to 400 ppm (2 mM), and to wt. % of 0.0006 wt. % ([…]) to 0.04 wt. % (2 mM). The lactam was provided in a DMSO/ethanol solvent to the plates. The plate was then inoculated with the marine organism or mixture thereof. The rate of growth of the culture was measured after 24 hours days by optical density.

Cellulophaga lytica = assay: as above; type: cell-based; conditions: 24 hours; for Optical Density (570 nm): untreated control 0.7; for lactam concentration with biofilm growth inhibition effect: Cellulophaga lytica
Method: as §1, §2, §3

Vibrio anguillarium = assay: as above; type: cell-based; conditions: 24 hours, untreated control 0.5
Method: as §1, §2, §3

[1] = tested on: mixture of the 7 marine organisms (Pseudoalteromonas atlantica, Cellulophaga lytica, Shewanella algae, Cobetia marina, Vibrio anguillarium, Vibrio …); assay: Multispecies biofilm (microfouling) growth inhibition, crystal violet biomass; type: cell-based, mixture of 7 marine organisms; conditions: for lactam concentration that inhibited biofilm growth: 7 marine organism mixture, 24, 48 and 72 hr
Method: as §2, with “Fresh stock solution of lactam was prepared at 20 mM in DMSO. Lactam stock was then serially diluted in tissue culture plates in 100% ethanol first ten-fold and subsequently to the desired concentrations. Plates were then left to dry overnight in a fume hood. Single” for “Single”
The marine species were as used for example 2: Shewanella algae, Cobetia marina, Vibrio alginolyticus, or Pseudoalteromonas atlantica, Aspergillus brasiliensis, Vibrio anguillarium, and Cellulophaga lytica. This time they were used in combination as a mixture to better model the marine environment, and the growth inhibition effect of the lactams on the challenging marine organism mixture was tested. This a challenging test as the presence of marine organisms where the lactam didn't have a growth inhibition effect would be expected to lead to biofilm growth. The results are shown in FIGS. 4 and 5 and Tables 2 and 3.

[2] = 0.0312 mM lactam, 24 hr, untreated control 1.3
[3] = 0.0312 mM lactam, 48 hr, untreated control 1.8
[4] = 0.0312 mM lactam, 72 hr, untreated control 1.1
[5] = 0.0625 mM lactam, 24 hr, untreated control 1.3
[6] = 0.0625 mM lactam, 48 hr, untreated control 1.8
[7] = 0.0625 mM lactam, 72 hr, untreated control 1.1
[8] = 0.125 mM lactam, 24 hr, untreated control 1.3
[9] = 0.125 mM lactam, 48 hr, untreated control 1.8
[10] = 0.125 mM lactam, 72 hr, untreated control 1.1
[11] = 0.25 mM lactam, 24 hr, untreated control 1.3
[12] = 0.25 mM lactam, 48 hr, untreated control 1.8
[13] = 0.25 mM lactam, 72 hr, untreated control 1.1
[14] = 0.5 mM lactam, 24 hr, untreated control 1.3
[15] = 0.5 mM lactam, 48 hr, untreated control 1.8
[16] = 0.5 mM lactam, 72 hr, untreated control 1.1
[17] = 1 mM lactam, 24 hr, untreated control 1.3
[18] = 1 mM lactam, 48 hr, untreated control 1.8
[19] = 1 mM lactam, 72 hr, untreated control 1.1
[20] = 2 mM lactam, 24 hr, untreated control 1.3
[21] = 2 mM lactam, 48 hr, untreated control 1.8
[22] = 2 mM lactam, 72 hr, untreated control 1.1

Question: Which results are given for C=C1NC(=O)C=C1c1ccc(Cl)cc1 [lactam 488, 4-(4-chlorophenyl)-5-methylene-pyrrol-2-one]?
Answer: Optical Density (570 nm) (Aspergillus brasiliensis; 0.0312 mM lactam): 0.5; Optical Density (570 nm) (Aspergillus brasiliensis; 0.0625 mM lactam): 0.6; Optical Density (570 nm) (Aspergillus brasiliensis; 0.125 mM lactam): 0.5; Optical Density (570 nm) (Aspergillus brasiliensis; 0.25 mM lactam): 0.4; Optical Density (570 nm) (Aspergillus brasiliensis; 0.5 mM lactam): 0.6; Optical Density (570 nm) (Aspergillus brasiliensis; 1 mM lactam): 0.5; Optical Density (570 nm) (Aspergillus brasiliensis; 2 mM lactam): 0.4; Optical Density (570 nm) (Cellulophaga lytica; 0.0312 mM lactam): 0.9; Optical Density (570 nm) (Cellulophaga lytica; 0.0625 mM lactam): 0.9; Optical Density (570 nm) (Cellulophaga lytica; 0.125 mM lactam): 0.8; Optical Density (570 nm) (Cellulophaga lytica; 0.25 mM lactam): 0.8; Optical Density (570 nm) (Cellulophaga lytica; 0.5 mM lactam): 0.2; Optical Density (570 nm) (Cellulophaga lytica; 1 mM lactam): 0.2; Optical Density (570 nm) (Cellulophaga lytica; 2 mM lactam): 0.1; lactam concentration with biofilm growth inhibition effect (Cellulophaga lytica): > 0.5 mM; Optical Density (570 nm) (Vibrio anguillarium; 0.0312 mM lactam): 0.5; Optical Density (570 nm) (Vibrio anguillarium; 0.0625 mM lactam): 0.6; Optical Density (570 nm) (Vibrio anguillarium; 0.125 mM lactam): 0.7; Optical Density (570 nm) (Vibrio anguillarium; 0.25 mM lactam): 0.6; Optical Density (570 nm) (Vibrio anguillarium; 0.5 mM lactam): 0.2; Optical Density (570 nm) (Vibrio anguillarium; 1 mM lactam): 0.1; Optical Density (570 nm) (Vibrio anguillarium; 2 mM lactam): 0.1; Optical Density (570 nm) [1, 2]: 1.3; Optical Density (570 nm) [1, 3]: 1.5; Optical Density (570 nm) [1, 4]: 1.4; Optical Density (570 nm) [1, 5]: 1.4; Optical Density (570 nm) [1, 6]: 1.8; Optical Density (570 nm) [1, 7]: 1.4; Optical Density (570 nm) [1, 8]: 1.2; Optical Density (570 nm) [1, 9]: 1.7; Optical Density (570 nm) [1, 10]: 1.2; Optical Density (570 nm) [1, 11]: 1; Optical Density (570 nm) [1, 12]: 1.3; Optical Density (570 nm) [1, 13]: 1.0; Optical Density (570 nm) [1, 14]: 0.6; Optical Density (570 nm) [1, 15]: 0.6; Optical Density (570 nm) [1, 16]: 0.4; Optical Density (570 nm) [1, 17]: 0.3; Optical Density (570 nm) [1, 18]: 0.2; Optical Density (570 nm) [1, 19]: 0.1; Optical Density (570 nm) [1, 20]: 0.1; Optical Density (570 nm) [1, 21]: 0.1; Optical Density (570 nm) [1, 22]: 0.1; lactam concentration that inhibited biofilm growth [1]: > 0.25 mM

Question: What does the source list for C=C1NC(=O)C=C1c1ccc(C)cc1 [lactam 491, 5-methylene-4-(p-tolyl)pyrrol-2-one]?
Answer: Optical Density (570 nm) (Aspergillus brasiliensis; 0.0312 mM lactam): 0.4; Optical Density (570 nm) (Aspergillus brasiliensis; 0.0625 mM lactam): 0.5; Optical Density (570 nm) (Aspergillus brasiliensis; 0.125 mM lactam): 0.5; Optical Density (570 nm) (Aspergillus brasiliensis; 0.25 mM lactam): 0.5; Optical Density (570 nm) (Aspergillus brasiliensis; 0.5 mM lactam): 0.5; Optical Density (570 nm) (Aspergillus brasiliensis; 1 mM lactam): 0.3; Optical Density (570 nm) (Aspergillus brasiliensis; 2 mM lactam): 0.4; Optical Density (570 nm) (Cellulophaga lytica; 0.0312 mM lactam): 0.9; Optical Density (570 nm) (Cellulophaga lytica; 0.0625 mM lactam): 1.0; Optical Density (570 nm) (Cellulophaga lytica; 0.125 mM lactam): 0.9; Optical Density (570 nm) (Cellulophaga lytica; 0.25 mM lactam): 0.9; Optical Density (570 nm) (Cellulophaga lytica; 0.5 mM lactam): 1.0; Optical Density (570 nm) (Cellulophaga lytica; 1 mM lactam): 0.5; Optical Density (570 nm) (Cellulophaga lytica; 2 mM lactam): 0.6; lactam concentration with biofilm growth inhibition effect (Cellulophaga lytica): > 1 mM; Optical Density (570 nm) (Vibrio anguillarium; 0.0312 mM lactam): 0.2; Optical Density (570 nm) (Vibrio anguillarium; 0.0625 mM lactam): 0.7; Optical Density (570 nm) (Vibrio anguillarium; 0.125 mM lactam): 0.7; Optical Density (570 nm) (Vibrio anguillarium; 0.25 mM lactam): 0.3; Optical Density (570 nm) (Vibrio anguillarium; 0.5 mM lactam): 0.4; Optical Density (570 nm) (Vibrio anguillarium; 1 mM lactam): 0.2; Optical Density (570 nm) (Vibrio anguillarium; 2 mM lactam): 0.1; Optical Density (570 nm) [1, 2]: 1.2; Optical Density (570 nm) [1, 3]: 1.7; Optical Density (570 nm) [1, 4]: 1.3; Optical Density (570 nm) [1, 5]: 1.1; Optical Density (570 nm) [1, 6]: 1.8; Optical Density (570 nm) [1, 7]: 1.2; Optical Density (570 nm) [1, 8]: 0.9; Optical Density (570 nm) [1, 9]: 1.6; Optical Density (570 nm) [1, 10]: 1.0; Optical Density (570 nm) [1, 11]: 0.9; Optical Density (570 nm) [1, 12]: 1.4; Optical Density (570 nm) [1, 13]: 0.9; Optical Density (570 nm) [1, 14]: 1.0; Optical Density (570 nm) [1, 15]: 1.2; Optical Density (570 nm) [1, 16]: 0.9; Optical Density (570 nm) [1, 17]: 0.7; Optical Density (570 nm) [1, 18]: 1.3; Optical Density (570 nm) [1, 19]: 1.2; Optical Density (570 nm) [1, 20]: 0.2; Optical Density (570 nm) [1, 21]: 0.2; Optical Density (570 nm) [1, 22]: 0.3; lactam concentration that inhibited biofilm growth [1]: > 0.25 mM
